45 molecules from patent USRE49735E1 (BRISTOL-MYERS SQUIBB COMPANY, priority 2010, dated 2023) can be followed below.

This assay deals with human mGluR5A (Homo sapiens, UniProt P41594). The assay can be described thus: mGluR5 FLIPR Assay. As to conditions: positive modulator activity; HEK293 (ZF) cells with human mGluR5A and rat GLAST; Ca++ response to ~EC10 glutamate. Format: cell-based. Here is the method: HEK293 (ZF) cells stably transfected with human mGluR5A (pIRES neo) and the rat glutamate-aspartate transporter (GLAST; pIRES puro) are grown in a monolayer culture at 37° C. in 5% CO2 and fed with Minimum Essential Medium (MEM) supplemented with 10% dialysed fetal bovine serum. 24 hours prior to assay, cells are enzymatically dissociated from the culture flask (Trypsin, 0.25%), spun down (1000 rpm, 3 min), resuspended, and plated on Greiner black clear bottomed PDL-coated 384-well plates at a density of 30 thousand cells/well. […] Plates are incubated in dye at 37° C. in 5% CO2 for 60 minutes prior to delivery of test compounds in assay buffer. Test compounds are incubated with cells in the presence of dye for 10 minutes prior to being read on the FLIPR platform (Molecular Devices). A Ca^++ signal is induced in the assay plates via the delivery of an ˜EC10 concentration of the endogenous agonist 1-glutamate; images are acquired at 1 Hz for 100 seconds post-delivery of agonist stimulus. Positive modulator activity (i.e. the ability of test compounds to increase the Ca^++ response to a sub-maximal concentration of agonist) is normalized to a saturating concentration of a known mGluR5 PAM run in each assay plate. An EC50 concentration of test compounds is derived from 4-parameter logistic curve fits of transformed fluoresence data via proprietary software suite.

Structures are written as SMILES. Values joined by “and” are separate entries in the source; they are usually repeats but may differ in a detail not shown here. Equal values may be shown once. Where only a bound is given, the exact number is not on record here.

Chain of human mGluR5A (P41594 21-1180 isoform P41594-2): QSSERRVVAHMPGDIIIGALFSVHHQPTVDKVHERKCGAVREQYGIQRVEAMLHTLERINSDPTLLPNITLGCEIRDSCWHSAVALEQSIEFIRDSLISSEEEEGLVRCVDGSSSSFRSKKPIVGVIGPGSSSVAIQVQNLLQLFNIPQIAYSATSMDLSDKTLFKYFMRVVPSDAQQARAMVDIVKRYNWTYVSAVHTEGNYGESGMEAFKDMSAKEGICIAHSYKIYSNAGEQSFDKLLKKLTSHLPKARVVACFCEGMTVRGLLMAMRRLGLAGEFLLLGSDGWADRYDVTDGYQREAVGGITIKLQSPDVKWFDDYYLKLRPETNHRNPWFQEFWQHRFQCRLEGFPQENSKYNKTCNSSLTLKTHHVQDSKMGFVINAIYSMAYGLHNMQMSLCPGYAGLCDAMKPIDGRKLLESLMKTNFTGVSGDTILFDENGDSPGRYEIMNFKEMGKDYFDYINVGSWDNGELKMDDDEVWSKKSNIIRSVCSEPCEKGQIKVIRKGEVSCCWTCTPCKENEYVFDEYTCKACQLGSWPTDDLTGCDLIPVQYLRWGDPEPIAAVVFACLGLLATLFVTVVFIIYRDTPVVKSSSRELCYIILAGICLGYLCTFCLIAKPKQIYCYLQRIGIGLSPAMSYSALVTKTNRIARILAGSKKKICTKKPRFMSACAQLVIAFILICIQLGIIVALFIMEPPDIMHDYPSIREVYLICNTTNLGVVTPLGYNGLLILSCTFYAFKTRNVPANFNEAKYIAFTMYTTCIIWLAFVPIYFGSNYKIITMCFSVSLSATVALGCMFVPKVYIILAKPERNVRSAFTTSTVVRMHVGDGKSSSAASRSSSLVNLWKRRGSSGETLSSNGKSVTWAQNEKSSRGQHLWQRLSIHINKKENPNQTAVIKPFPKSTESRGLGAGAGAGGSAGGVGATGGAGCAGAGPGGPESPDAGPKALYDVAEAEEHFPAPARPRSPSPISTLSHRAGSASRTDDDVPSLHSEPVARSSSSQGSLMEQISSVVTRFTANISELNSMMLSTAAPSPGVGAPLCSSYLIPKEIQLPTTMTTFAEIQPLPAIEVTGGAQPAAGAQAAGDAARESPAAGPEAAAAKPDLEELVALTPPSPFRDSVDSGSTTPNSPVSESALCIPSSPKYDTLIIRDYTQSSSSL

With `C[C@]1(c2cccc(C#Cc3ccccc3)n2)NC(=O)O[C@@H]1c1ccccc1F` (single isomer, unassigned) [Example 378], the half-maximal effective concentration (EC50) was less than 100 nM.
In the case of `O=C1N[C@H](c2cc(C#Cc3ccc(Cl)cc3)ccn2)[C@@H](c2ccc(F)cc2)O1` (single isomer, unassigned) [Example 349], the EC50 is 100 to 1000 nM and 305 nM.
The same measure for `COc1cccc([C@H]2OC(=O)N[C@@H]2c2cccc(C#Cc3cccc(OC(F)(F)F)c3)c2)c1` [Example 269]: greater than 1000 nM; for `O=C1N[C@@H](c2cccc(C#Cc3ccccc3)c2)[C@H](c2ccncn2)O1` [Example 238]: greater than 1000 nM.
The same measure for `COc1cccc([C@H]2OC(=O)N[C@@H]2c2cccc(C#Cc3ccc(OC)nc3)c2)c1` [Example 71, (4R,5R)-5-(3-Methoxyphenyl)-4-(3-((6-methoxypyridin-3-yl)ethynyl)phenyl)oxazolidin-2-one]: 100 to 1000 nM and 325 nM; for `O=C1N[C@H](c2cc(C#Cc3cccnc3)cnc2F)[C@@H](c2cccc(F)c2)O1` [Example 139, (4R,5R)-4-(2-Fluoro-5-(pyridin-3-ylethynyl)pyridin-3-yl)-5-(3-fluorophenyl)oxazolidin-2-one]: less than 100 nM.
The figure for `Cc1cccc(C#Cc2cncc([C@H]3NC(=O)O[C@@H]3c3cccc(F)c3)c2)c1` [Example 401, (4R,5R)-5-(3-fluorophenyl)-4-(5-(m-tolylethynyl)pyridin-3-yl)oxazolidin-2-one] is less than 100 nM; for `O=C1N[C@H](c2ccnc(C#Cc3cccc(F)c3)c2)[C@@H](c2cccnc2)O1` [Example 252] it is greater than 1000 nM; for `O=C1N[C@@H](c2cccc(C#Cc3cccnc3)c2)[C@H](c2ccncc2)O1` [Example 236] it is greater than 1000 nM.
`O=C1N[C@@H](c2cncc(C#Cc3ccccc3)c2)[C@H](c2ccncn2)O1` (single isomer, unassigned) [Example 317] had an EC50 greater than 1000 nM.
For the molecule `COc1cccc([C@H]2OC(=O)N[C@@H]2c2cccc(C#Cc3ccc(C#N)nc3)c2)c1` [Example 70, 5-((3-((4R,5R)-5-(3-Methoxyphenyl)-2-oxazolidin-4-yl)phenyl)ethynyl)picolinonitrile], the EC50 is greater than 1000 nM.
Regarding `COc1cccc([C@H]2OC(=O)N[C@@H]2c2cccc(C#Cc3cccc(F)n3)c2)c1` [Example 72, (4R,5R)-4-(3-((6-Fluoropyridin-2-yl)ethnyl)phenyl)-5-(3-methoxyphenyl)oxazolidin-2-one], the EC50 is less than 100 nM.
Molecule `O=C1N[C@H](c2cccc(C#Cc3ccccc3)c2)[C@@H](c2cccc(F)c2)O1` (racemic) [Example 111, Trans-5-(3-fluorophenyl)-4-(3-(phenylethynyl)phenyl)oxazolidin-2-one] showed an EC50 of less than 100 nM.
The same measure for `O=C1N[C@H](c2cncc(C#Cc3cccc(Cl)c3)c2)[C@@H](c2cccc(F)c2)O1` [Example 403, (4R,5R)-4-(5-((3-chlorophenyl)ethynyl)pyridin-3-y1)-5-(3-fluorophenyl)oxazolidin-2-one]: less than 100 nM; for `O=C1N[C@@H](c2cccc(C#Cc3ccccc3)n2)[C@H](c2ccc(F)cc2)O1` (single isomer, unassigned) [Example 136]: greater than 1000 nM; for `O=C1N[C@H](c2ccnc(C#Cc3ccccc3)c2)[C@@H](c2cccc(F)c2)O1` [Example 259]: < 100 nM and 1.9 nM.
As to `COc1cccc([C@H]2OC(=O)N[C@@H]2c2cccc(C#Cc3ccccc3)c2)c1` [Example 1, (+)-(4R,5R)-5-(3-Methoxyphenyl)-4-(3-(phenylethynyl)phenyl)oxazolidin-2-one], the EC50 is < 100 nM and 39 nM.
The figure for `COc1cccc([C@H]2OC(=O)N[C@@H]2c2cccc(C#Cc3cnccn3)c2)c1` [Example 63, (4R,5R)-5-(3-Methoxyphenyl)-4-(3-(pyrazin-2-ylethynyl)phenyl)oxazolidin-2-one] is less than 100 nM; for `O=C1N[C@H](c2cncc(C#Cc3ccccc3)c2)[C@@H](c2c(F)cc(F)cc2F)O1` [Example 292] it is less than 100 nM; for `N#Cc1cncc(C#Cc2cncc([C@H]3NC(=O)O[C@@H]3c3cccc(F)c3)c2)c1` [Example 257] it is 100 to 1000 nM and 164 nM.
For `COc1cccc([C@H]2OC(=O)N[C@@H]2c2cccc(C#Cc3ccccn3)c2)c1` [Example 47, (4R,5R)-5-(3-Methoxyphenyl)-4-(3-(pyridin-2-ylethynyl)phenyl)oxazolidin-2-one], the EC50 was < 100 nM and 7.4 nM.
Molecule `COc1cccc([C@@H]2OC(=O)N[C@H]2c2cccc(C#Cc3ccccc3F)c2)c1` (stereo in doubt) [Example 122, (4S,5S)-4-(3-((2-fluorophenyl)ethynyl)phenyl)-5-(3-methoxyphenyl)oxazolidin-2-one] had a half-maximal effective concentration (EC50) greater than 1000 nM.
In turn, `COc1cccc([C@@H]2OC(=O)N[C@H]2c2cccc(C#Cc3ccccc3C(F)(F)F)c2)c1` [Example 126, (4S,5S)-5-(3-methoxyphenyl)-4-(3-((2-(trifluoromethyl)phenyl)ethynyl)phenyl)oxazolidin-2-one] yielded an EC50 greater than 30000 nM.
The same measure for `O=C1N[C@@H](c2cccc(C#Cc3cnccn3)n2)[C@H](c2ccc(F)cc2)O1` (single isomer, unassigned) [Example 369]: greater than 1000 nM.
For `COc1cccc([C@H]2OC(=O)N[C@@H]2c2cncc(C#Cc3csc(C)n3)c2)c1` (single isomer, unassigned) [Example 31], the half-maximal effective concentration (EC50) was greater than 1000 nM.
In the case of `C[C@]1(c2ccccc2)OC(=O)N[C@@H]1c1cncc(C#Cc2ccccc2)c1` [Example 227], the EC50 was less than 100 nM.
As to `O=C1N[C@@H](c2cccc(C#Cc3ccccc3)n2)[C@H](c2cccnc2)O1` (single isomer, unassigned) [Example 366], the EC50 is greater than 1000 nM.
Regarding `O=C1N[C@H](c2cncc(C#Cc3cccc(Cl)c3)c2)[C@@H](c2cc(F)ccc2F)O1` [Example 385, (4R,5R)-4-(5-((3-chlorophenyl)ethynyl)pyridin-3-yl)-5-(2,5-difluorophenyl)oxazolidin-2-one], the EC50 was greater than 1000 nM.
On to `N#Cc1cccc(C#Cc2cncc([C@H]3NC(=O)O[C@@H]3c3cc(F)cc(F)c3)c2)c1` [Example 174], for which the EC50 was greater than 1000 nM.
Molecule `O=C1N[C@H](c2cc(C#Cc3cncc(C4CC4)c3)cnc2F)[C@@H](c2ccc(F)cc2)O1` [Example 155, (4R,5R)-4-(5-((5-Cyclopropylpyridin-3-yl)ethynyl)-2-fluoropyridin-3-yl)-5-(4-fluorophenyl)oxazolidin-2-one] yielded an EC50 greater than 1000 nM.
For `O=C1N[C@H](c2cccc(C#Cc3ccccc3)c2)[C@@H](c2nnn[nH]2)O1` [Example 168, (4R,5S)-4-(3-(Phenylethynyl)phenyl)-5-(1H-tetrazol-5-yl)oxazolidin-2-one], the EC50 is greater than 1000 nM.
Regarding `O=C1N[C@@H](c2cncc(C#Cc3ccccc3)c2)[C@H](c2ncco2)O1` [Example 338, (4S,5R)-5-(oxazol-2-yl)-4-(5-(phenylethynyl)pyridin-3-yl)oxazolidin-2-one], the EC50 is greater than 1000 nM.
The figure for `COc1cccc([C@@H]2OC(=O)N[C@H]2c2cncc(C#Cc3csc(C)n3)c2)c1` (single isomer, unassigned) [Example 30] is greater than 1000 nM.
In the case of `O=C1N[C@@H](c2cccc(C#Cc3cccc(F)c3)n2)[C@H](c2ccc(F)cc2F)O1` (single isomer, unassigned) [Example 312], the EC50 is greater than 3000 nM.
`O=C1N[C@H](c2cncc(C#Cc3ccccn3)c2)[C@@H](c2ccc(F)c(F)c2)O1` [Example 178]: the EC50 is 100 to 1000 nM and 117 nM.
Turning to `COc1cccc([C@@H]2OC(=O)N[C@H]2c2cncc(C#Cc3ccccc3)c2)c1` (single isomer, unassigned) [Example 32], the EC50 was greater than 1000 nM.
Regarding `O=C1N[C@@H](c2cncc(C#Cc3ccccc3)c2)[C@H](c2ccccc2)O1` (single isomer, unassigned) [Example 39], the EC50 is less than 100 nM.
The figure for `O=C1N[C@H](c2cncc(C#Cc3ccccc3)c2)[C@@H](c2cccc(F)c2F)O1` [Example 277] is < 100 nM and 21.5 nM; for `N#Cc1cccc(C#Cc2cncc([C@@H]3NC(=O)O[C@H]3c3cc(F)cc(F)c3)c2)c1` [Example 190] it is greater than 1000 nM; for `O=C1N[C@H](c2cc(C#Cc3ccccc3)ncc2F)[C@@H](c2ccccc2F)O1` [Example 304, (4R,5R)-4-(5-Fluoro-2-(phenylethynyl)pyridin-4-yl)-5-(2-fluorophenyl)oxazolidin-2-one] it is less than 100 nM.
The same measure for `COc1cccc([C@H]2OC(=O)N[C@@H]2c2cccc(C#Cc3ccccc3)n2)c1` (single isomer, unassigned) [Example 5]: less than 100 nM; for `C[C@@]1(c2cc(F)ccc2F)OC(=O)N[C@@H]1c1cncc(C#Cc2ccccc2)c1` [Example 290]: greater than 1000 nM.
`O=C1N[C@H](c2cncc(C#Cc3cccnc3)c2)[C@@H](c2ccc(F)c(F)c2)O1` [Example 173] gave an EC50 of less than 100 nM.
The molecule `O=C1N[C@@H](c2cccc(C#Cc3ccccc3)c2)[C@H](c2cccnc2)O1` [Example 118, (4S,5S)-4-(3-(phenylethynyl)phenyl)-5-(pyridin-3-yl)oxazolidin-2-one] yielded an EC50 greater than 1000 nM.
Regarding `C[C@@]1(c2cncc(C#Cc3ncccc3F)c2)NC(=O)O[C@H]1c1ccc(F)cc1` (single isomer, unassigned) [Example 343], the EC50 is greater than 1000 nM.

As usually defined, the EC50 is the concentration at which the effect is half-maximal. Read a low EC50 as an effect from little substance.
